system: SH-SY5Y M-currents (KCNQ2, KCNQ3 and KCNQ5); experiment: SH-SY5Y native cell line FLIPR assay (voltage-sensitive dye DiBAC); format: cell-based, mouse neuroblastoma, rat glioma hybrid cell line; conditions: FLIPR assay, SH-SY5Y native cell line; Table 2; read-out: SH-SY5Y EC50
How it was run: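 Response is peak DiBAC fluorescence change, normalised to the maximum from a positive control agent, sampled every 30 s over 25 min. Before compound addition, SH-SY5Y cells differentiated with PGE1 plus isomethylbutylxanthine were dye-loaded for 1 h in EBSS with […] DiBAC.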

Row | SMILES | EC50
1 | CC(C)(C)CC(=O)Nc1nc2ccc(Br)cn2c1-c1ccc(F)cc1 [Compound 152, N-(6-bromo-3-(4-fluorophenyl)imidazo[1,2-a]pyridin-2-yl)-3,3-dimethyl butanamide] | < 500 nM
2 | O=C(Cc1ccc(F)cc1)Nc1nc2ccc(F)cn2c1-c1ccc(OC(F)(F)F)cc1 [Compound 154, N-(6-fluoro-3-(4-(trifluoromethoxy)phenyl)imidazo[1,2-a]pyridin-2-yl)-2-(4-fluorophenyl)acetamide] | < 500 nM
3 | O=C(Cc1ccccc1)Nc1nc2ccc(F)cn2c1-c1cccc(Cl)c1 [Compound 155, N-(3-(3-chlorophenyl)-6-fluoroimidazo[1,2-a]pyridin-2-yl)-2-phenylacetamide] | < 500 nM
4 | O=C(CC1CCCC1)Nc1nc2ccc(F)cn2c1-c1ccc(C(F)(F)F)cc1 [Compound 156, 2-cyclopentyl-N-(6-fluoro-3-(4-(trifluoromethyl)phenyl)imidazo[1,2-a]pyridin-2-yl)acetamide] | < 500 nM
5 | O=C(CC1CCCCC1)Nc1nc2ccc(F)cn2c1-c1ccc(C(F)(F)F)cc1 [Compound 157, 2-cyclohexyl-N-(6-fluoro-3-(4-(trifluoromethyl)phenyl)imidazo[1,2-a]pyridin-2-yl)acetamide] | < 500 nM
6 | CC(C)(C)CC(=O)Nc1nc2ccc(F)cn2c1-c1ccccc1Cl [Compound 158, N-(3-(2-chlorophenyl)-6-fluoroimidazo[1,2-a]pyridin-2-yl)-3,3-dimethylbutanamide] | 500 to 3000 nM
7 | CC(C)(C)CC(=O)Nc1nc2ccc(C#N)cn2c1-c1ccc(F)cc1 [Compound 159, N-(6-cyano-3-(4-fluorophenyl)imidazo[1,2-a]pyridin-2-yl)-3,3-dimethylbutanamide] | 500 to 3000 nM
8 | N#Cc1ccc2nc(NC(=O)Cc3ccccc3)c(-c3ccc(F)cc3)n2c1 [Compound 160, N-(6-cyano-3-(4-fluorophenyl)imidazo[1,2-a]pyridin-2-yl)-2-phenylacetamide] | 500 to 3000 nM
9 | O=C(Nc1nc2ccc(F)cn2c1-c1ccc(C(F)(F)F)cc1)OCc1ccccc1 [Compound 161, benzyl 6-fluoro-3-(4-(trifluoromethyl)phenyl)imidazo[1,2-a]pyridin-2-ylcarbamate] | 3000 to 10000 nM
10 | CC(C)C(C)C(=O)Nc1nc2ccc(F)cn2c1-c1ccc(F)cc1 (centres unmarked) [Compound 162, N-(6-fluoro-3(4-fluorophenyl)imidazo[1,2-a]pyridin-2-yl)-2,3-dimethylbutanamide] | 500 to 3000 nM
11 | CC(C)(C)CC(=O)Nc1nc2ccc(F)cn2c1-c1cccc(C(F)(F)F)c1 [Compound 163, N-(6-fluoro-3-(3-(trifluoromethyl)phenyl)imidazo[1,2-a]pyridin-2-yl)-3,3-dimethylbutanamide] | < 500 nM
12 | O=C(Cc1ccc(F)cc1)Nc1nc2ccc(F)cn2c1-c1cccc(C(F)(F)F)c1 [Compound 164, N-(6-fluoro-3-(3-(trifluoromethyl)phenyl)imidazo[1,2-a]pyridin-2-yl)-2-(4-fluorophenyl)acetamide] | < 500 nM
13 | O=C(Cc1ccccc1)Nc1nc2ccc(F)cn2c1-c1cccc(C(F)(F)F)c1 [Compound 165, N-(6-fluoro-3-(3-(trifluoromethyl)phenyl)imidazo[1,2-a]pyridin-2-yl)-2-phenylacetamide] | < 500 nM
14 | Cc1ccc2nc(NC(=O)Cc3ccccc3)c(-c3ccc(F)cc3)n2c1 [Compound 166, N-(3-(4-fluorophenyl)-6-methylimidazo[1,2-a]pyridin-2-yl)-2-phenylacetamide] | < 500 nM
15 | Cc1ccc2nc(NC(=O)CC(C)(C)C)c(-c3ccc(F)cc3)n2c1 [Compound 167, N-(3-(4-fluorophenyl)-6-methylimidazo[1,2-a]pyridin-2-yl)-3,3-dimethylbutanamide] | < 500 nM
16 | Cc1ccn2c(-c3ccc(F)cc3)c(NC(=O)Cc3ccccc3)nc2c1 [Compound 168, N-(3-(4-fluorophenyl)-7-methylimidazo[1,2-a]pyridin-2-yl)-2-phenylacetamide] | < 500 nM
17 | Cc1ccn2c(-c3ccc(F)cc3)c(NC(=O)CC(C)(C)C)nc2c1 [Compound 169, N-(3-(4-fluorophenyl)-7-methylimidazo[1,2-a]pyridin-2-yl)-3,3-dimethylbutanamide] | < 500 nM
18 | O=C(CC1CCCC1)Nc1nc2ccc(F)cn2c1-c1ccc(OC(F)(F)F)cc1 [Compound 170, 2-cyclopentyl-N-(6-fluoro-3-(4-(trifluoromethoxy)phenyl)imidazo[1,2-a]pyridin-2-yl)acetamide] | < 500 nM
19 | O=C(CC1CC1)Nc1nc2ccc(F)cn2c1-c1ccc(OC(F)(F)F)cc1 [Compound 171, 2-cyclopropyl-N-(6-fluoro-3-(4-(trifluoromethoxy)phenyl)imidazo[1,2-a]pyridin-2-yl)acetamide] | 500 to 3000 nM
20 | O=C(CCC1CC1)Nc1nc2ccc(F)cn2c1-c1ccc(OC(F)(F)F)cc1 [Compound 172, 3-cyclopropyl-N-(6-fluoro-3-(4-(trifluoromethoxy)phenyl)imidazo[1,2-a]pyridin-2-yl)propanamide] | 500 to 3000 nM
21 | O=C(CCC(F)(F)F)Nc1nc2ccc(F)cn2c1-c1ccc(OC(F)(F)F)cc1 [Compound 173, 4,4,4-trifluoro-N-(6-fluoro-3-(4-(trifluoromethoxy)phenyl)imidazo[1,2-a]pyridin-2-yl)butanamide] | 500 to 3000 nM
22 | O=C(CCCC(F)(F)F)Nc1nc2ccc(F)cn2c1-c1ccc(OC(F)(F)F)cc1 [Compound 174, 5,5,5-trifluoro-N-(6-fluoro-3-(4-(trifluoromethoxy)phenyl)imidazo[1,2-a]pyridin-2-yl)pentanamide] | < 500 nM
23 | CC(C)(C)CC(=O)Nc1nc2ccc(F)cn2c1-c1ccc(C(C)(C)C#N)cc1 [Compound 175, N-(3-(4-(2-cyanopropan-2-yl)phenyl)-6-fluoroimidazo[1,2-a]pyridin-2-yl)-3,3-dimethylbutanamide] | 500 to 3000 nM
24 | CC(C)(C)CC(=O)Nc1nc2ccc(F)cn2c1-c1cccc(C(C)(C)C#N)c1 [Compound 176, N-(3-(3-(2-cyanopropan-2-yl)phenyl)-6-fluoroimidazo[1,2-a]pyridin-2-yl)-3,3-dimethylbutanamide] | 500 to 3000 nM
25 | CC(C)(C)CC(=O)Nc1nc2ccc(F)cn2c1-c1ccc(C#N)cc1 [Compound 177, N-(3-(4-cyanophenyl)-6-fluoroimidazo[1,2-a]pyridin-2-yl)-3,3-dimethylbutanamide] | 500 to 3000 nM
26 | CC(C)(C)CC(=O)Nc1nc2ccc(C(F)(F)F)cn2c1-c1ccc(OC(F)(F)F)cc1 [Compound 178, 3,3-dimethyl-N-(3-(4-(trifluoromethoxy)phenyl)-6-(trifluoromethyl)imidazo[1,2-a]pyridin-2-yl)butanamide] | < 500 nM
27 | CC1(CC(=O)Nc2nc3ccc(F)cn3c2-c2ccc(F)cc2)CCCC1 [Compound 179, N-(6-fluoro-3-(4-fluorophenyl)imidazo[1,2-a]pyridin-2-yl)-2-(1-methylcyclopentyl)acetamide] | < 500 nM
28 | CC(C)(C)C(O)C(=O)Nc1nc2ccc(F)cn2c1-c1ccc(C(F)(F)F)cc1 (centres unmarked) [Compound 181, N-(6-fluoro-3-(4-(trifluoromethyl)phenyl)imidazo[1,2-a]pyridin-2-yl)-2-hydroxy-3,3-dimethylbutanamide] | 500 to 3000 nM
29 | CC(C)(C)CC(=O)Nc1nc2ccc(F)cn2c1-c1cccc(OC(F)(F)F)c1 [Compound 182, N-(6-fluoro-3-(3-(trifluoromethoxy)phenyl)imidazo[1,2-a]pyridin-2-yl)-3,3 dimethylbutanamide] | < 500 nM

Source: patent US9018208B2, “Heterocycles as potassium channel modulators” (Icagen Inc., priority 2007, dated 2015)
